# Test system: rats subjected to sTBI
# Assay: sTBI rats, LMW-DS 1, 5, 15 mg/kg s.c. 30 min post-TBI: HPLC of brain energy metabolites, antioxidants, oxidative/nitrosative stress biomarkers (Example 4)
# Type: in vivo, rat
# Method: Male Wistar rats (n=160) of 300-350 g body weight were used in this study. They were fed with standard laboratory diet and water ad libitum in a controlled environment.
# As the accepted anesthetic mixture, animals received 35 mg/kg b.w. ketamine and 0.25 mg/kg body weight midazolam by intramuscular injection. Diffuse sTBI was induced according to the “weight drop” impact acceleration model set up by Marmarou et al. J. Neurosurg. 1994, 80: 291-300. This model causes diffuse axonal injury and it is able to reproduce the physical and mechanical characteristics of the diffuse TBI in humans.
# Severe TBI was induced by dropping a 450 g weight from 2 meters height onto the rat head protected by a helmet (metal disk previously fixed on the skull using dental cement) in order to uniformly distribute the mechanical force to the brain. Rats were placed prone on a bed of specific polyurethane foam inserted in a special container; this foam dissipates the major part of the potential energy (deriving from the mechanical forces) and prevents any rebound of the animal after the impact that could produce spinal damages.
# After 2 or 7 days from TBI induction, rats were anesthetized again and then immediately sacrificed. These time points are coincident with the worst biochemical derangement (2 days) or, in the case of a mildly injured brain, with a full metabolic recovery (7 days).
# The drug treatment consisted in a subcutaneous injection of 0.5 ml of LMW-DS (ILB®, Tikomed, Viken, Sweden, WO 2016/076780) and administered at 3 different concentrations (1, 5 and 15 mg/kg body weight), according to the schematic protocol described below. Sham-operated animals underwent the same procedure of anesthesia but TBI and were used as the control group.
# (§1) Rats subjected to sTBI and receiving a single administration of LMW-DS after 30 minutes post-TBI, with sacrifice at 2 days post-TBI. Animals were divided in the following subgroups: • 1. 12 animals subjected to sTBI and treated with 1 mg/kg b.w. LMW-DS • 2. 12 animals subjected to sTBI and treated with 5 mg/kg b.w. LMW-DS • 3. 12 animals subjected to sTBI and treated with 15 mg/kg b.w. LMW-DS
# as §1, with “at 7” for “at 2”
# Rats (n = 12) subjected to sTBI and receiving repeated administrations of the maximal dose of LMW-DS (15 mg/kg b.w.) after 30 minutes, 3 days and 5 days post-TBI, with sacrifice at 7 days post-TBI. Four additional rats were used for the histo-morphological studies. Total rats in this group: n=16
# To minimize metabolite loss, an in vivo craniectomy was performed in all animals during anesthesia. The rat skull was carefully removed, the brain was exposed, sharply cut along the sagittal fissure and the two hemispheres were separated. The hemispheres dedicated to biochemical analyses were freeze-clamped by aluminum tongues pre-cooled in liquid nitrogen and then immersed in liquid nitrogen. The freeze-clamping procedure was introduced to accelerate freezing of the tissue, thus minimizing potential metabolite loss.
# Tissue homogenization for metabolite analyses was effected as described below. After the wet weight (w.w.) determination, the frozen hemispheres were placed into 7 ml of ice-cold, nitrogen-saturated, precipitating solution (1:10 w/v) composed by CH3CN + 10 mM KH2PO4, pH 7.40, (3:1; v:v), and the homogenization was performed using an Ultra-Turrax homogenizer set at 24,000 rpm/min (Janke & Kunkel, Staufen, Germany). […]
# [1] = 1 mg/kg, 7 d post-sTBI, adimensional ratio
substance,measurement,setting,value
sodium salt of dextran sulfate [LMW-DS],UDP-Glc,"1 mg/kg, 7 d post-sTBI",63.19 ± 12.84 nmol/g w.w.
same,UDP-GlcNac,"1 mg/kg, 7 d post-sTBI",85.36 ± 29.53 nmol/g w.w.
same,UMP,"1 mg/kg, 7 d post-sTBI",103.06 ± 19.96 nmol/g w.w.
same,URACIL,"1 mg/kg, 7 d post-sTBI",14.78 ± 3.04 nmol/g w.w.
same,URIC ACID,"1 mg/kg, 7 d post-sTBI",7.13 ± 1.70 nmol/g w.w.
same,URIDINE,"1 mg/kg, 7 d post-sTBI",110.17 ± 26.11 nmol/g w.w.
same,UTP,"1 mg/kg, 7 d post-sTBI",179.75 ± 31.48 nmol/g w.w.
same,XANTHINE,"1 mg/kg, 7 d post-sTBI",12.53 ± 3.54 nmol/g w.w.
same,β-PSEUDOURIDINE,"1 mg/kg, 7 d post-sTBI",14.00 ± 2.60 nmol/g w.w.
same,ATP/ADP,[1],6.12 ± 0.78
same,NAD+/NADH,[1],33.91 ± 9.32
same,ADENOSINE,"5 mg/kg, 2 d post-sTBI",92.58 ± 22.16 nmol/g w.w.
same,ADP,"5 mg/kg, 2 d post-sTBI",364.92 ± 31.39 nmol/g w.w.
same,ADP-Ribose,"5 mg/kg, 2 d post-sTBI",21.65 ± 4.35 nmol/g w.w.
same,AMP,"5 mg/kg, 2 d post-sTBI",67.03 ± 11.85 nmol/g w.w.
same,ASCORBIC ACID,"5 mg/kg, 2 d post-sTBI",2626.68 ± 151.17 nmol/g w.w.
same,ATP,"5 mg/kg, 2 d post-sTBI",1683.87 ± 98.66 nmol/g w.w.
same,Acetyl-CoA,"5 mg/kg, 2 d post-sTBI",34.85 ± 4.05 nmol/g w.w.
same,CDP choline,"5 mg/kg, 2 d post-sTBI",5.16 ± 0.77 nmol/g w.w.
same,CMP,"5 mg/kg, 2 d post-sTBI",28.94 ± 5.91 nmol/g w.w.
same,CREATININE,"5 mg/kg, 2 d post-sTBI",10.22 ± 1.90 nmol/g w.w.
same,CTP,"5 mg/kg, 2 d post-sTBI",37.72 ± 7.63 nmol/g w.w.
same,CYTIDINE,"5 mg/kg, 2 d post-sTBI",7.47 ± 1.35 nmol/g w.w.
same,CYTOSINE,"5 mg/kg, 2 d post-sTBI",13.65 ± 1.67 nmol/g w.w.
same,CoA-SH,"5 mg/kg, 2 d post-sTBI",7.46 ± 0.82 nmol/g w.w.
same,GDP,"5 mg/kg, 2 d post-sTBI",183.27 ± 25.32 nmol/g w.w.
same,GDP Glucose,"5 mg/kg, 2 d post-sTBI",83.81 ± 37.35 nmol/g w.w.
same,GMP,"5 mg/kg, 2 d post-sTBI",167.44 ± 8.47 nmol/g w.w.
same,GSH,"5 mg/kg, 2 d post-sTBI",2067.79 ± 301.54 nmol/g w.w.
same,GTP,"5 mg/kg, 2 d post-sTBI",180.01 ± 18.99 nmol/g w.w.
same,GUANINE,"5 mg/kg, 2 d post-sTBI",1.68 ± 0.42 nmol/g w.w.
same,GUANOSINE,"5 mg/kg, 2 d post-sTBI",30.97 ± 5.15 nmol/g w.w.
same,HYPOXANTHINE,"5 mg/kg, 2 d post-sTBI",4.18 ± 0.68 nmol/g w.w.
same,IMP,"5 mg/kg, 2 d post-sTBI",33.19 ± 6.25 nmol/g w.w.
same,INOSINE,"5 mg/kg, 2 d post-sTBI",114.89 ± 14.98 nmol/g w.w.
same,MDA,"5 mg/kg, 2 d post-sTBI",32.73 ± 5.33 nmol/g w.w.
same,Malonyl-CoA,"5 mg/kg, 2 d post-sTBI",35.58 ± 7.54 nmol/g w.w.
same,NADH,"5 mg/kg, 2 d post-sTBI",10.37 ± 1.19 nmol/g w.w.
same,NADPH,"5 mg/kg, 2 d post-sTBI",37.48 ± 3.11 nmol/g w.w.
same,NADP^+,"5 mg/kg, 2 d post-sTBI",11.86 ± 2.71 nmol/g w.w.
same,NAD^+,"5 mg/kg, 2 d post-sTBI",376.85 ± 64.15 nmol/g w.w.
same,NO2,"5 mg/kg, 2 d post-sTBI",218.12 ± 26.28 nmol/g w.w.
same,NO3,"5 mg/kg, 2 d post-sTBI",148.41 ± 32.30 nmol/g w.w.
same,UDP,"5 mg/kg, 2 d post-sTBI",70.93 ± 7.27 nmol/g w.w.
same,UDP-Gal,"5 mg/kg, 2 d post-sTBI",116.42 ± 9.72 nmol/g w.w.
same,UDP-GalNac,"5 mg/kg, 2 d post-sTBI",20.75 ± 3.06 nmol/g w.w.
same,UDP-Glc,"5 mg/kg, 2 d post-sTBI",28.60 ± 4.23 nmol/g w.w.
same,UDP-GlcNac,"5 mg/kg, 2 d post-sTBI",140.58 ± 12.80 nmol/g w.w.
same,UMP,"5 mg/kg, 2 d post-sTBI",97.98 ± 13.53 nmol/g w.w.
same,URACIL,"5 mg/kg, 2 d post-sTBI",17.83 ± 3.48 nmol/g w.w.
same,URIC ACID,"5 mg/kg, 2 d post-sTBI",11.22 ± 2.30 nmol/g w.w.
same,URIDINE,"5 mg/kg, 2 d post-sTBI",117.21 ± 20.64 nmol/g w.w.
same,UTP,"5 mg/kg, 2 d post-sTBI",142.82 ± 22.43 nmol/g w.w.
same,XANTHINE,"5 mg/kg, 2 d post-sTBI",6.71 ± 0.70 nmol/g w.w.
same,β-PSEUDOURIDINE,"5 mg/kg, 2 d post-sTBI",10.41 ± 2.09 nmol/g w.w.
same,NAD^+/NADH,"5 mg/kg, 2 d post-sTBI, adimensional ratio",36.61 ± 6.09
same,ADENOSINE,"5 mg/kg, 7 d post-sTBI",22.24 ± 16.47 nmol/g w.w.
same,ADP,"5 mg/kg, 7 d post-sTBI",289.27 ± 38.52 nmol/g w.w.
same,ADP-Ribose,"5 mg/kg, 7 d post-sTBI",6.76 ± 1.70 nmol/g w.w.
same,AMP,"5 mg/kg, 7 d post-sTBI",59.50 ± 4.68 nmol/g w.w.
same,ASCORBIC ACID,"5 mg/kg, 7 d post-sTBI",2195.87 ± 264.45 nmol/g w.w.
same,ATP,"5 mg/kg, 7 d post-sTBI",1730.92 ± 139.24 nmol/g w.w.
same,Acetyl-CoA,"5 mg/kg, 7 d post-sTBI",22.87 ± 3.89 nmol/g w.w.
same,CDP choline,"5 mg/kg, 7 d post-sTBI",10.37 ± 3.33 nmol/g w.w.
same,CMP,"5 mg/kg, 7 d post-sTBI",55.67 ± 22.97 nmol/g w.w.
same,CREATININE,"5 mg/kg, 7 d post-sTBI",5.48 ± 0.97 nmol/g w.w.
same,CTP,"5 mg/kg, 7 d post-sTBI",79.08 ± 14.54 nmol/g w.w.
same,CYTIDINE,"5 mg/kg, 7 d post-sTBI",26.51 ± 9.33 nmol/g w.w.
same,CYTOSINE,"5 mg/kg, 7 d post-sTBI",12.67 ± 2.72 nmol/g w.w.
same,CoA-SH,"5 mg/kg, 7 d post-sTBI",51.86 ± 6.66 nmol/g w.w.
same,GDP,"5 mg/kg, 7 d post-sTBI",126.82 ± 14.49 nmol/g w.w.
same,GDP Glucose,"5 mg/kg, 7 d post-sTBI",104.76 ± 12.25 nmol/g w.w.
same,GMP,"5 mg/kg, 7 d post-sTBI",101.42 ± 48.00 nmol/g w.w.
same,GSH,"5 mg/kg, 7 d post-sTBI",2412.17 ± 317.97 nmol/g w.w.
same,GTP,"5 mg/kg, 7 d post-sTBI",453.86 ± 41.27 nmol/g w.w.
same,GUANINE,"5 mg/kg, 7 d post-sTBI",7.92 ± 3.37 nmol/g w.w.
same,GUANOSINE,"5 mg/kg, 7 d post-sTBI",33.42± 6.96 nmol/g w.w.
same,HYPOXANTHINE,"5 mg/kg, 7 d post-sTBI",13.45 ± 3.91 nmol/g w.w.
same,IMP,"5 mg/kg, 7 d post-sTBI",68.72 ± 17.60 nmol/g w.w.
same,INOSINE,"5 mg/kg, 7 d post-sTBI",196.61 ± 22.06 nmol/g w.w.
same,MDA,"5 mg/kg, 7 d post-sTBI",17.78 ± 2.94 nmol/g w.w.

# Reference: patent publication US20230346827A1 (priority 2020, published 2023)
